From US10736910B2, “Treatment of autophagy-based disorders and related pharmaceutical compositions, diagnostic and screening assays and kits” (STC.UNM, priority 2012, dated 2020)
Square brackets hold non-standard residues; d marks the D form. Peptide text beside a SMILES is read from it. Nle = CCCC[C@H](N)C(=O)O

What was measured:
[1] = test system: Atg5fl/fl LysM-Cre− and Cre+ bone marrow-derived macrophages (BMM); assay: IL-1α release (ELISA) from LPS- and IFN-γ-stimulated bone marrow-derived macrophages; type: cell-based, murine; details: 12 h; for IL-1α secreted: autophagy-competent Atg5fl/fl LysM-Cre− BMM, LPS and IFN-γ stimulated, 50 μg/ml rapamycin, 10 mM 3-MA or 100 nM Bafilomycin A1
From the text: FIG. 5. Excess cytokine secretion is a cell-autonomous property of autophagy-deficient macrophages and IL-1α hypersecretion by Atg5^fl/fl LysM-Cre^+ macrophages depends on reactive oxygen intermediates and calpain. (A-C) In vitro cytokine (IL-1α, CXCL1, and IL-12p70) release (ELISA) from LPS- and IFN-γ-stimulated Atg5^fl/fl LysM-Cre^− and Cre^+ bone marrow-derived macrophages (BMM). (D) CXCL1 released from LPS- and IFN-γ-stimulated Atg5^fl/fl LysM-Cre^+ BMM in the absence of presence of IL-1RA ([…]). (E) Fraction of 7-AAD^+ BMM after LPS and IFN-γ stimulation in vitro. (F,G) IL-1α and CXCL1 levels (ELISA) in lung homogenates of uninfected Atg5^fl/fl LysM-Cre^− and Cre^+ mice. (H,I) IL-1α (ELISA) released from LPS- and IFN-γ stimulated Atg5^fl/fl LysM-Cre BMM in the presence of 50 μg/ml rapamycin (Rap), 10 mM 3-MA, or 100 nM Bafilomycin A1 (Baf A1) after 12 h of stimulation. (J) IL-1α secretion during inflammasome activation. Atg5^fl/fl LysM-Cre^− and Cre^+ BMM were pretreated overnight with LPS (100 ng/ml) then stimulated for 1 h in the absence or presence of the inflammasome agonist silica (250 μg/ml) in EBSS. (K) IL-1α secretion in the presence of caspase 1 inhibitor YVAD. Atg5^fl/fl LysM-Cre^− and Cre^+ BMM were pretreated overnight with LPS (100 ng/ml) then stimulated for 1 h in the absence or presence of YVAD (50 μM) during inflammasome activation with silica as in J. (L) Effects of caspase 1 siRNA knockdown (immunoblot, left) on IL-1α release (graph, right) from Atg5^fl/fl LysM-Cre^+ BMM. Graph (center), IL-1α release from LPS-stimulated siRNA-treated Atg5^fl/fl LysM-Cre^+ BMM in full media or EBSS (Starv). Graph (right), same as middle graph in full medium only. Casp 1, caspase 1 siRNA: Scr, scrambled, control siRNA. (M) IL-1α release from LPS- and IFN-γ-stimulated Atg5^fl/fl LysM-Cre^+ BMM knocked down with siRNA for inflammasome components ASC and NLRP3. (N,O) ROS inhibition and IL-1 secretion: IL-1α (N) and IL-1β (0) released (ELISA) from LPS- and IFN-γ-stimulated Atg5^fl/fl LysM-Cre^− and Cre^+ BMM in the absence or presence of ROS antagonist APDC (50 μM) after 12 h of incubation. (P) Calpain and […] hypersecretion phenotype. IL-1β (ELISA) released from LPS- and IFN-γ stimulated Atg5^fl/fl LysM-Cre^− and Cre^+ BMM in the absence or presence of calpain inhibitor ALLN (100 μM) after 12 h of stimulation. Data, mean±SE, *p<0.05, **p<0.01, † p>0.05 (t test; n≥3).
(§1) All cells were pretreated with Stain FcX (anti-CD16/32) (Biolegend) before being stained for. […] Caspase 1 activity was measured by flow cytometry using the FLICA caspase 1 reagent (FAM-YVAD-FMK) (Immunochemistry Technologies). […] Secreted cytokines (IL-1αIL-1β CXCL1, CXCL2 and IL-12p70) were measured by ELISA (R&D Systems). […]

[2] = test system: Atg5fl/fl LysM-Cre+ BMM; assay: CXCL1 release (ELISA) from LPS- and IFN-γ-stimulated Atg5fl/fl LysM-Cre+ BMM; type: cell-based, murine; design: dose or concentration left out as unconfirmed; details: IL-1RA
From the text: (§2) FIG. 5. Excess cytokine secretion is a cell-autonomous property of autophagy-deficient macrophages and IL-1α hypersecretion by Atg5^fl/fl LysM-Cre^+ macrophages depends on reactive oxygen intermediates and calpain. (A-C) In vitro cytokine (IL-1α, CXCL1, and IL-12p70) release (ELISA) from LPS- and IFN-γ-stimulated Atg5^fl/fl LysM-Cre^− and Cre^+ bone marrow-derived macrophages (BMM). (D) CXCL1 released from LPS- and IFN-γ-stimulated Atg5^fl/fl LysM-Cre^+ BMM in the absence of presence of IL-1RA ([…]). (E) Fraction of 7-AAD^+ BMM after LPS and IFN-γ stimulation in vitro. (F,G) IL-1α and CXCL1 levels (ELISA) in lung homogenates of uninfected Atg5^fl/fl LysM-Cre^− and Cre^+ mice. (H,I) IL-1α (ELISA) released from LPS- and IFN-γ stimulated Atg5^fl/fl LysM-Cre BMM in the presence of 50 μg/ml rapamycin (Rap), 10 mM 3-MA, or 100 nM Bafilomycin A1 (Baf A1) after 12 h of stimulation. (J) IL-1α secretion during inflammasome activation. […]
as §1

[3] = test system: Atg5fl/fl LysM-Cre− and Cre+ bone marrow-derived macrophages (BMM); assay: IL-1β release (ELISA) from LPS- and IFN-γ-stimulated bone marrow-derived macrophages; type: cell-based, murine; details: APDC 50 μM, 12 h
From the text: as §2
FIG. 10. […] IL-1β secretion was examined in autophagy-competent Atg5fl/fl LysM-CreBMM and IL-1α secretion was measured in autophagy-deficient Atg5fl/fl LysM-Cre+ BMM. […]
All cells were pretreated with Stain FcX (anti-CD16/32) (Biolegend) before being stained for. […] Caspase 1 activity was measured by flow cytometry using the FLICA caspase 1 reagent (FAM-YVAD-FMK) (Immunochemistry Technologies). […]

[4] = test system: BMM; assay: HMGB1 extracellular release from BMM (immunoblot of culture supernatants); type: cell-based, murine; details: BMM stimulated with nigericin; largely diminished in Atg5-deficient BMM
From the text: We tested whether induction of autophagy affected other proteins not connected to proteolytic processing in the inflammasome, such as HMGB1 (high mobility group box 1 protein). HMGB1 is a major pro-inflammatory alarmin or DAMP (damage-associated molecular pattern) normally present in the nucleus (34A). This chromatin-associated nuclear protein (with additional intracellular and extracellular signaling roles), upon exposure to inputs including those that induce autophagy (63A,64A), undergoes a complex set of biochemical and localization changes. In the process, it first translocates from the nucleus into the cytoplasm and then is released from the cytoplasm to act in tissue remodeling signaling (when acting alone) or as an inflammatory mediator (when combined with bacterial agonists or other alarmins such as IL-1β). […] HMGB1, along with additional unconventional substrates, depends on inflammasome for secretion although the protein itself is not subjected to proteolytic processing by caspase 1 (65A-68A).

[5] = test system: TBK-1; assay: IL-1β secretion with pharmacological TBK-1 inhibition (preliminary studies); type: cell-based; details: preliminary studies with TBK-1 inhibitor
[6] = test system: naïve CD4 T cells; assay: Ex vivo Th17 polarization of naïve CD4 T cells (intracellular IL-17A, flow cytometry); type: cell-based, mice; details: 20 ng/ml IL-1α in combination with 5 ng/ml TGF-β and 20 ng/ml IL-6, day 4
Procedure: FIG. 9. T cell activation state and IL-1α role in T cell IL-17 polarization. (A,B) CD44 and CD25 expression on CD4 T cells from lungs of uninfected Atg5fl/fl LysM-Cre and Cre+mice. (C-F) Intracellular IL-17A production (day 4; release blocked with monensin) by naïve CD4 T cells polarized in the presence of cytokine cocktails: 5 ng/ml TGF-β and 20 ng/ml IL-6, plus 20 ng/ml IL-1α or 20 ng/ml IL-1β. Dot plot (panel C), levels of IL-17A in unstimulated cells (starting material). Histograms (D,E), IL-17A in naïve CD4 T cells polarized in the presence of TGF-β, IL-6 and IL-1α (panel D) or TGF-β, IL-6 and IL-1β (panel E). (F) Percent of IL-17A+CD4 T cells under respective polarizing conditions. Data: mean±SE; † p>0.05 (t test; n≥3).
Single cell suspensions from whole lungs isolated from naïve Atg5^fl/fl LysM-Cre^+ and Cre^− mice were cultured in RPMI 10% FBS and Cell Stimulation Cocktail (phorbol 12-myristate 13-acetate and ionomycin plus brefeldin A and monensin; eBioscience) for 4 h and analyzed by flow cytometry. […] After 4 days, cells were stimulated with 1× Cell Stimulation Cocktail in the presence of protein transport inhibitors for 5 hours at 37° C. and analyzed by flow cytometry.

With `Cn1cnc(N)c2ncnc1-2` [3MA, 3-methyladenine] the IL-1α secreted [1] was “significantly increased”.

In the case of “IL-1RA: IL-1 receptor antagonist (R&D Systems)”, the CXCL1 levels [2] is reported as “lowered CXCL1 levels”.

`CCCC[C@@H](C=O)NC(=O)[C@H](CC(C)C)NC(=O)[C@H](CC(C)C)NC(C)=O` [ALLN] (Ac-Leu-Leu-[Nle]-aldehyde) was tested, and the “excess IL-1α production” value ([1]; LPS- and IFN-γ-stimulated Atg5fl/fl LysM-Cre+ BMM, ALLN 100 μM) was “completely inhibited the excess IL-1α production”.

With `N[C@@]1(C(=O)O)CN[C@@H](C(=O)O)C1` [APDC, (2R,4R)-4-aminopyrrolidine-2,4-dicarboxylate] the “excessive IL-1α release” value ([1]; LPS- and IFN-γ-stimulated Atg5fl/fl LysM-Cre+ BMM, APDC 50 μM) was “abrogated excessive IL-1α” and the “excessive IL-1β release” value [3] was “inhibited excessive IL-1β release”.

For `CO/C1=C\C(C)=C\[C@@H](C)[C@@H](O)[C@@H](C)C/C(C)=C/C=C/[C@H](OC)[C@@H]([C@@H](C)[C@@H](O)[C@H](C)[C@@]2(O)C[C@@H](O)[C@H](C)[C@@H](C(C)C)O2)OC1=O` [bafilomycin A1], the IL-1α secreted [1] was “An effect similar to 3MA”.

With `CO[C@@H]1C[C@@H](C[C@H]2CC[C@H](C)[C@H]([C@@H](C)C(=O)O)O2)O[C@]2(O[C@](C)([C@H]3CC[C@@](C)([C@@H]4O[C@@H]([C@H]5O[C@@](O)(CO)[C@H](C)C[C@@H]5C)C[C@@H]4C)O3)C[C@H]2C)[C@@H]1C` [nigericin] the “HMGB1 in culture supernatants” value [4] was “An HMGB1 band was detected”.

For `O=C(NCCCNc1nc(Nc2cccc(NC(=O)N3CCCC3)c2)ncc1I)c1cccs1` [BX795], the IL-1β secretion [5] was “reduced”.

B1: IL-1α: cytokine (R&D Systems) added at 20 ng/ml for T cell polarization (protein, UniProt P01583 113-271, looked up)
Interleukin-1 alpha: SAPFSFLSNVKYNFMRIIKYEFILNDALNQSIIRANDQYLTAAALHNLDEAVKFDMGAYKSSKDDAKITVILRISKTQLYVTAQDEDQPVLLKEMPEIPKTITGSETNLLFFWETHGTKNYFTSVAHPNLFIATKQDYWVCLAGGPPSITDFQILENQA
For B1, the “Th17 polarization (IL-17A+ CD4 T cells)” value [6] was “showed a capacity to promote Th17 polarization”.
